Literature values, collected in patent US20060057620A1, “Treatment of HIV infection” (priority 2004, published 2006).

Tested on: circulating T-cells
Details: FIG. 1

alemtuzumab
time to full recovery of T-cells (after a single dose): ≥ 3 months
killing of circulating T-cells (T-cell depletion) (single dose): able to kill all circulating T-cells
